Test systems include 786-0 renal; COLO 205 colon; HS 578T breast; MDA-MB-231 breast; NCI/ADR-RES ovarian; OVCAR-5 ovarian; RPMI-8226 leukemia; SK-MEL-28 melanoma; SK-MEL-5 melanoma; SW-620 colon.
Holding throughout (test): growth of human tumour cells (NCI), 48 h

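Briefly, cells in 96-well plates were exposed to five compound concentrations for 48 h, and endpoints were estimated by linear interpolation. At the GI50, growth is halved. Definition used: TGI = concentration required for complete inhibition of growth.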

On to `CN(C)CCOc1nc2c3cccnc3cc(-c3cccc(Cl)c3)c2c2ncccc12`, for which the GI50 in the test with 786-0 renal was 1.45 µM; in the test with COLO 205 colon, 1.23 µM; with HS 578T breast, 1.97 µM; in the test on MDA-MB-231 breast it was 1.5 µM; in the test on NCI/ADR-RES ovarian, 1.42 µM; with OVCAR-5 ovarian, 1.5 µM. Besides, the GI50 was 2.34 µM in the test on RPMI-8226 leukemia, 1.65 µM with SK-MEL-28 melanoma, 1.78 µM in the test with SK-MEL-5 melanoma and 0.684 µM in the test with SW-620 colon. Further, the TGI with 786-0 renal turned out to be 2.84 µM; in the test with COLO 205 colon, 2.74 µM; in the test with HS 578T breast, 5.06 µM; in the test on MDA-MB-231 breast, 3.53 µM; in the test with NCI/ADR-RES ovarian, 2.82 µM; in the test with OVCAR-5 ovarian, 4.02 µM. Besides, the TGI with RPMI-8226 leukemia is 6.24 µM; with SK-MEL-28 melanoma, 3.07 µM; in the test on SK-MEL-5 melanoma it was 3.2 µM; with SW-620 colon, 2.19 µM.
`O=C(NCCCNC(=O)OCc1ccc2c(Br)cc(Br)c(O)c2n1)OCc1ccc2c(Br)cc(Br)c(O)c2n1`: the GI50 in the test with 786-0 renal, in the test with COLO 205 colon, with HS 578T breast, with MDA-MB-231 breast, in the test on NCI/ADR-RES ovarian and in the test with OVCAR-5 ovarian was > 100 µM each time. The GI50 in the test with RPMI-8226 leukemia, with SK-MEL-28 melanoma, with SK-MEL-5 melanoma and with SW-620 colon was > 100 µM in each case. The TGI in the test with 786-0 renal, with COLO 205 colon, in the test with HS 578T breast, in the test with MDA-MB-231 breast, with NCI/ADR-RES ovarian and with OVCAR-5 ovarian was > 100 µM throughout. For the same molecule, the TGI in the test on RPMI-8226 leukemia, with SK-MEL-28 melanoma, with SK-MEL-5 melanoma and in the test on SW-620 colon was > 100 µM in each case.
For the molecule `CCCCCCNC(=O)Oc1ccc(/C(=C(\C)c2ccccc2)c2ccc(OCCN3CCCCC3)cc2)cc1`, the GI50 in the test with 786-0 renal was 1.69 µM; with COLO 205 colon, 1.78 µM; in the test with HS 578T breast, 2.71 µM; in the test with MDA-MB-231 breast it was 2.09 µM; with NCI/ADR-RES ovarian, 3.12 µM; in the test with OVCAR-5 ovarian it was 9.75 µM. Further, the GI50 is 2.38 µM in the test on RPMI-8226 leukemia, 2.06 µM with SK-MEL-28 melanoma, 1.63 µM with SK-MEL-5 melanoma and 2.16 µM in the test on SW-620 colon. For the same molecule, the TGI amounted to 3.12 µM with 786-0 renal; 3.57 µM in the test with COLO 205 colon; 13.4 µM with HS 578T breast; 4.96 µM in the test on MDA-MB-231 breast; 12.7 µM in the test on NCI/ADR-RES ovarian; 24.1 µM in the test on OVCAR-5 ovarian. In addition, the TGI is 5.57 µM with RPMI-8226 leukemia, 4.41 µM in the test on SK-MEL-28 melanoma, 2.99 µM in the test on SK-MEL-5 melanoma and 5.66 µM in the test with SW-620 colon.
For the molecule `CS(=O)c1ccc(-c2nc(-c3ccc(F)cc3)c(-c3ccncc3)[nH]2)cc1` (stereo not given), the GI50 in the test on 786-0 renal was 16.8 µM; in the test with COLO 205 colon it was 14.7 µM; in the test on HS 578T breast it was 33.3 µM; in the test on MDA-MB-231 breast, 48.4 µM; with NCI/ADR-RES ovarian it was > 100 µM; in the test with OVCAR-5 ovarian it was 55 µM. Also, the GI50 in the test with RPMI-8226 leukemia is 26.2 µM; in the test with SK-MEL-28 melanoma it was 17.1 µM; in the test with SK-MEL-5 melanoma, 20.3 µM; in the test on SW-620 colon, 30 µM. In addition, the TGI is 38.8 µM with 786-0 renal; 50.2 µM in the test with COLO 205 colon; > 100 µM with HS 578T breast; > 100 µM with MDA-MB-231 breast; > 100 µM in the test with NCI/ADR-RES ovarian; > 100 µM in the test on OVCAR-5 ovarian. Further, the TGI is 83.6 µM in the test with RPMI-8226 leukemia, 66.3 µM in the test with SK-MEL-28 melanoma, 50.5 µM with SK-MEL-5 melanoma and > 75 µM in the test on SW-620 colon.
As for `COc1ccc(C2C(c3ccccc3)C(=O)N2c2cc(OC)c(OC)c(OC)c2)cc1I` (stereo not given), the GI50 with 786-0 renal was 0.397 µM; in the test with COLO 205 colon, 0.228 µM; in the test on HS 578T breast, 0.435 µM; in the test with MDA-MB-231 breast, 0.455 µM; with NCI/ADR-RES ovarian, 0.319 µM; in the test with OVCAR-5 ovarian, 0.526 µM. Also, the GI50 was 0.422 µM with RPMI-8226 leukemia, 2.31 µM in the test with SK-MEL-28 melanoma, 0.224 µM in the test with SK-MEL-5 melanoma and 0.423 µM in the test on SW-620 colon. The TGI in the test with 786-0 renal is > 100 µM; with COLO 205 colon, 0.648 µM; with HS 578T breast it was > 100 µM; in the test on MDA-MB-231 breast, > 100 µM; in the test with NCI/ADR-RES ovarian, > 100 µM; with OVCAR-5 ovarian it was > 100 µM. For the same molecule, the TGI with RPMI-8226 leukemia is > 100 µM; in the test on SK-MEL-28 melanoma, > 100 µM; in the test on SK-MEL-5 melanoma, 0.729 µM; in the test on SW-620 colon, > 100 µM.
With `COc1cc(-c2nn(C(=O)NS(=O)(=O)c3ccc(C)cc3)cc2-c2ccncc2)ccc1Cl`, the GI50 in the test with 786-0 renal was 3.47 µM; in the test with COLO 205 colon it was 3.89 µM; with HS 578T breast, 7.38 µM; in the test with MDA-MB-231 breast it was 3.19 µM; with NCI/ADR-RES ovarian, 3.93 µM; in the test with OVCAR-5 ovarian, 5.53 µM. Besides, the GI50 was 15.5 µM in the test on RPMI-8226 leukemia, 3.51 µM in the test with SK-MEL-28 melanoma, 4.58 µM with SK-MEL-5 melanoma and 20.4 µM in the test on SW-620 colon. Also, the TGI with 786-0 renal is 17.7 µM; with COLO 205 colon, 15.4 µM; with HS 578T breast it was > 100 µM; in the test with MDA-MB-231 breast, 28.2 µM; with NCI/ADR-RES ovarian, 80.6 µM; in the test on OVCAR-5 ovarian, 39.4 µM. The TGI is > 100 µM in the test on RPMI-8226 leukemia, 13.1 µM in the test on SK-MEL-28 melanoma, 17.1 µM in the test on SK-MEL-5 melanoma and > 100 µM in the test on SW-620 colon.
Consider `Cc1c2ncccc2nc2[nH]c3ccc(OCCN(C)C)cc3c12`, for which the GI50 with 786-0 renal was 2.81 µM; in the test on COLO 205 colon, 1.5 µM; with HS 578T breast, 3.77 µM; in the test on MDA-MB-231 breast, 2.5 µM; with NCI/ADR-RES ovarian, 1.1 µM; in the test with OVCAR-5 ovarian, 2.81 µM. For the same molecule, the GI50 was 2.13 µM in the test with RPMI-8226 leukemia, 4.4 µM in the test on SK-MEL-28 melanoma, 9.77 µM with SK-MEL-5 melanoma and 0.94 µM in the test on SW-620 colon. Also, the TGI in the test with 786-0 renal was 16.1 µM; in the test on COLO 205 colon, 7.94 µM; in the test on HS 578T breast, 33.7 µM; in the test with MDA-MB-231 breast it was 16 µM; with NCI/ADR-RES ovarian, 17.4 µM; with OVCAR-5 ovarian, 19.2 µM. Besides, the TGI in the test on RPMI-8226 leukemia was 5.91 µM; in the test on SK-MEL-28 melanoma, 19.1 µM; in the test on SK-MEL-5 melanoma it was 21.9 µM; in the test on SW-620 colon, 13.7 µM.

The record behind these values is PubChem BioAssay (NCI).
